{"source": "the NIST ThermoML archive (doi:10.1021/acs.jced.5b00105)", "assay": "refractive index (Na D-line) (dimensionless); xn = mol fraction of the nth substance listed", "conditions": "100 kPa, Liquid", "note": "± gives the expanded uncertainty stated by the source."}
{"smiles": "CCCCC1CCCCC1", "note": "[butylcyclohexane] + CC(C)CC(C)(C)C", "values": [{"measurement": "refractive index", "setting": "293.15 K, x1 = 0.0999", "value": "1.3972 ± 0.0015"}, {"measurement": "refractive index", "setting": "293.15 K, x1 = 0.2002", "value": "1.4026 ± 0.0015"}, {"measurement": "refractive index", "setting": "293.15 K, x1 = 0.3001", "value": "1.4079 ± 0.0015"}, {"measurement": "refractive index", "setting": "293.15 K, x1 = 0.3996", "value": "1.413 ± 0.0015"}, {"measurement": "refractive index", "setting": "293.15 K, x1 = 0.5005", "value": "1.4181 ± 0.0015"}, {"measurement": "refractive index", "setting": "293.15 K, x1 = 0.6003", "value": "1.423 ± 0.0015"}, {"measurement": "refractive index", "setting": "293.15 K, x1 = 0.6994", "value": "1.4276 ± 0.0015"}, {"measurement": "refractive index", "setting": "293.15 K, x1 = 0.8", "value": "1.4321 ± 0.0015"}, {"measurement": "refractive index", "setting": "293.15 K, x1 = 0.9001", "value": "1.4362 ± 0.0015"}, {"measurement": "refractive index", "setting": "293.15 K, x1 = 1", "value": "1.4403 ± 0.0015"}, {"measurement": "refractive index", "setting": "298.15 K, x1 = 0.1008", "value": "1.3944 ± 0.0015"}, {"measurement": "refractive index", "setting": "298.15 K, x1 = 0.2", "value": "1.4001 ± 0.0015"}, {"measurement": "refractive index", "setting": "298.15 K, x1 = 0.3001", "value": "1.4055 ± 0.0015"}, {"measurement": "refractive index", "setting": "298.15 K, x1 = 0.3999", "value": "1.4105 ± 0.0015"}, {"measurement": "refractive index", "setting": "298.15 K, x1 = 0.5004", "value": "1.4155 ± 0.0015"}, {"measurement": "refractive index", "setting": "298.15 K, x1 = 0.5999", "value": "1.4204 ± 0.0015"}, {"measurement": "refractive index", "setting": "298.15 K, x1 = 0.6995", "value": "1.4249 ± 0.0015"}, {"measurement": "refractive index", "setting": "298.15 K, x1 = 0.7998", "value": "1.4295 ± 0.0015"}, {"measurement": "refractive index", "setting": "298.15 K, x1 = 0.9", "value": "1.4335 ± 0.0015"}, {"measurement": "refractive index", "setting": "298.15 K, x1 = 1", "value": "1.4377 ± 0.0015"}, {"measurement": "refractive index", "setting": "303.15 K, x1 = 0.0999", "value": "1.3928 ± 0.0015"}, {"measurement": "refractive index", "setting": "303.15 K, x1 = 0.2002", "value": "1.3981 ± 0.0015"}, {"measurement": "refractive index", "setting": "303.15 K, x1 = 0.3001", "value": "1.4034 ± 0.0015"}, {"measurement": "refractive index", "setting": "303.15 K, x1 = 0.3996", "value": "1.4087 ± 0.0015"}, {"measurement": "refractive index", "setting": "303.15 K, x1 = 0.5005", "value": "1.4139 ± 0.0015"}, {"measurement": "refractive index", "setting": "303.15 K, x1 = 0.6003", "value": "1.4186 ± 0.0015"}, {"measurement": "refractive index", "setting": "303.15 K, x1 = 0.6994", "value": "1.423 ± 0.0015"}, {"measurement": "refractive index", "setting": "303.15 K, x1 = 0.8", "value": "1.4274 ± 0.0015"}, {"measurement": "refractive index", "setting": "303.15 K, x1 = 0.9001", "value": "1.4314 ± 0.0015"}, {"measurement": "refractive index", "setting": "303.15 K, x1 = 1", "value": "1.4355 ± 0.0015"}, {"measurement": "refractive index", "setting": "308.15 K, x1 = 0.1008", "value": "1.3898 ± 0.0015"}, {"measurement": "refractive index", "setting": "308.15 K, x1 = 0.2", "value": "1.3953 ± 0.0015"}, {"measurement": "refractive index", "setting": "308.15 K, x1 = 0.3001", "value": "1.4008 ± 0.0015"}, {"measurement": "refractive index", "setting": "308.15 K, x1 = 0.3999", "value": "1.4057 ± 0.0015"}, {"measurement": "refractive index", "setting": "308.15 K, x1 = 0.5004", "value": "1.4112 ± 0.0015"}, {"measurement": "refractive index", "setting": "308.15 K, x1 = 0.5999", "value": "1.4158 ± 0.0015"}, {"measurement": "refractive index", "setting": "308.15 K, x1 = 0.6995", "value": "1.4207 ± 0.0015"}, {"measurement": "refractive index", "setting": "308.15 K, x1 = 0.7998", "value": "1.4249 ± 0.0015"}, {"measurement": "refractive index", "setting": "308.15 K, x1 = 0.9", "value": "1.4292 ± 0.0015"}, {"measurement": "refractive index", "setting": "308.15 K, x1 = 1", "value": "1.4333 ± 0.0015"}, {"measurement": "refractive index", "setting": "313.15 K, x1 = 0.0999", "value": "1.3884 ± 0.0015"}, {"measurement": "refractive index", "setting": "313.15 K, x1 = 0.2002", "value": "1.3935 ± 0.0015"}, {"measurement": "refractive index", "setting": "313.15 K, x1 = 0.3001", "value": "1.3988 ± 0.0015"}, {"measurement": "refractive index", "setting": "313.15 K, x1 = 0.3996", "value": "1.4042 ± 0.0015"}, {"measurement": "refractive index", "setting": "313.15 K, x1 = 0.5005", "value": "1.4094 ± 0.0015"}, {"measurement": "refractive index", "setting": "313.15 K, x1 = 0.6003", "value": "1.4141 ± 0.0015"}, {"measurement": "refractive index", "setting": "313.15 K, x1 = 0.6994", "value": "1.4185 ± 0.0015"}, {"measurement": "refractive index", "setting": "313.15 K, x1 = 0.8", "value": "1.4229 ± 0.0015"}, {"measurement": "refractive index", "setting": "313.15 K, x1 = 0.9001", "value": "1.4271 ± 0.0015"}, {"measurement": "refractive index", "setting": "313.15 K, x1 = 1", "value": "1.4314 ± 0.0015"}, {"measurement": "refractive index", "setting": "318.15 K, x1 = 0.1008", "value": "1.3849 ± 0.0015"}, {"measurement": "refractive index", "setting": "318.15 K, x1 = 0.2", "value": "1.3907 ± 0.0015"}, {"measurement": "refractive index", "setting": "318.15 K, x1 = 0.3001", "value": "1.3959 ± 0.0015"}, {"measurement": "refractive index", "setting": "318.15 K, x1 = 0.3999", "value": "1.4015 ± 0.0015"}, {"measurement": "refractive index", "setting": "318.15 K, x1 = 0.5004", "value": "1.4069 ± 0.0015"}, {"measurement": "refractive index", "setting": "318.15 K, x1 = 0.5999", "value": "1.4118 ± 0.0015"}, {"measurement": "refractive index", "setting": "318.15 K, x1 = 0.6995", "value": "1.4161 ± 0.0015"}, {"measurement": "refractive index", "setting": "318.15 K, x1 = 0.7998", "value": "1.4208 ± 0.0015"}, {"measurement": "refractive index", "setting": "318.15 K, x1 = 0.9", "value": "1.4248 ± 0.0015"}, {"measurement": "refractive index", "setting": "318.15 K, x1 = 1", "value": "1.429 ± 0.0015"}, {"measurement": "refractive index", "setting": "323.15 K, x1 = 0.1008", "value": "1.3824 ± 0.0015"}, {"measurement": "refractive index", "setting": "323.15 K, x1 = 0.2", "value": "1.3885 ± 0.0015"}, {"measurement": "refractive index", "setting": "323.15 K, x1 = 0.3001", "value": "1.3943 ± 0.0015"}, {"measurement": "refractive index", "setting": "323.15 K, x1 = 0.3999", "value": "1.3993 ± 0.0015"}, {"measurement": "refractive index", "setting": "323.15 K, x1 = 0.5004", "value": "1.4045 ± 0.0015"}, {"measurement": "refractive index", "setting": "323.15 K, x1 = 0.5999", "value": "1.4093 ± 0.0015"}, {"measurement": "refractive index", "setting": "323.15 K, x1 = 0.6995", "value": "1.4145 ± 0.0015"}, {"measurement": "refractive index", "setting": "323.15 K, x1 = 0.7998", "value": "1.4184 ± 0.0015"}, {"measurement": "refractive index", "setting": "323.15 K, x1 = 0.9", "value": "1.4229 ± 0.0015"}, {"measurement": "refractive index", "setting": "323.15 K, x1 = 1", "value": "1.4268 ± 0.0015"}]}
